Reference: ChEMBL document CHEMBL4028808, “Design and synthesis of selective CDK8/19 dual inhibitors: Discovery of 4,5-dihydrothieno[3',4':3,4]benzo[1,2-d]isothiazole derivatives” (Bioorg Med Chem, 2017)
Calls of active or inactive are those of the source. The rule behind the calls is not given here.

Key:
SET-2 = experiment: Antitumor activity against human SET2 cells implanted in […] assessed as reduction in tumor volume administered intraperitoneally relative to control; format: functional; parameters: scale not given: the % may be the effect or the level left
[1] = target: T1, Cyclin-dependent kinase 8 (Homo sapiens, UniProt P49336); experiment: Inhibition of CDK8 (unknown origin) at 1 uM by ADP-Glo assay
[2] = target: T1, Cyclin-dependent kinase 8; experiment: Inhibition of CDK8 in human A549 cells by mass spectrometric method; format: cell-based
[3] = target: Proto-oncogene tyrosine-protein kinase Src (Homo sapiens) (UniProt P12931); experiment: Inhibition of SRC (unknown origin) at <1 uM using biotinylated poly[Glu:Tyr] (4:1) as substrate pretreated for 5 mins followed by substrate addition measured after 10 mins by Alphascreen assay
[4] = target: CDK2/Cyclin A2 (Homo sapiens) (UniProt P24941+P20248); experiment: Inhibition of CDK2/cyclin A (unknown origin) at 1 uM using histone H1 as substrate preincubated for 5 mins followed by substrate addition measured after 20 mins in presence of [gamma33P]ATP by scintillation counter method relative to control; format: protein-complex assay
[5] = target: CDC7/DBF4 (Cell division cycle 7-related protein kinase/Activator of S phase kinase) (Homo sapiens) (UniProt Q9UBU7+O00311); experiment: Inhibition of CDC7/Dbf4 (unknown origin) at 1 uM using His-tagged MCM2 as substrate preincubated for 5 mins followed by substrate addition measured after 60 mins in presence of [gamma33P]ATP by scintillation counter method relative to control; format: protein-complex assay
[6] = target: Vascular endothelial growth factor receptor 2 (Homo sapiens) (UniProt P35968); experiment: Inhibition of VEGFR2 (unknown origin) at <1 uM using biotinylated poly[Glu:Tyr] (4:1) as substrate pretreated for 5 mins followed by substrate addition measured after 10 mins by Alphascreen assay
[7] = target: Focal adhesion kinase 1 (Homo sapiens) (UniProt Q05397); experiment: Inhibition of FAK (unknown origin) at <1 uM using biotinylated poly[Glu:Tyr] (4:1) as substrate pretreated for 5 mins followed by substrate addition measured after 20 mins by Alphascreen assay
[8] = target: CDK8/Cyclin C (Homo sapiens) (UniProt P49336+P24863); settings: 1 uM
Description: Inhibition of kinase tracer-236 binding to GST-tagged CDK8/CyclinC (unknown origin) at 1 uM after 60 mins by TR-FRET assay relative to control

[9] = target: Mitogen-activated protein kinase kinase kinase 5 (Homo sapiens) (UniProt Q99683); experiment: Inhibition of ASK1 (unknown origin) at 1 uM using MBP as substrate preincubated for 5 mins followed by substrate addition measured after 60 mins in presence of [gamma33P]ATP by scintillation counter method relative to control
[10] = target: MAP kinase-activated protein kinase 2 (Homo sapiens) (UniProt P49137); experiment: Inhibition of MAPKAPK2 (unknown origin) at <1 uM using KKLNRTLSVA-NH2 as substrate preincubated for 5 mins followed by substrate addition measured after 10 mins in presence of [gamma33P]ATP by scintillation counter method
[11] = target: T1, Cyclin-dependent kinase 8; experiment: Inhibition of CDK8 in human SW480 cells assessed as decrease in STAT1 phosphorylation at Ser727 after 2 hrs by Western blot method
[12] = target: Cyclin-C/Cyclin-dependent kinase 19 (Homo sapiens) (UniProt Q9BWU1+P24863); settings: 1 uM
Description: Inhibition of kinase tracer-236 binding to GST-tagged CDK19/CyclinC (unknown origin) at 1 uM after 60 mins by TR-FRET assay relative to control

[13] = target: Rho-associated protein kinase 1 (Homo sapiens) (UniProt Q13464); experiment: Inhibition of ROCK1 (unknown origin) at 1 uM using long S6 peptide as substrate pretreated for 5 mins followed by substrate addition measured after 10 mins in presence of [gamma33P]ATP by scintillation counting method relative to control
[14] = target: Ephrin type-A receptor 5 (Homo sapiens) (UniProt P54756); experiment: Inhibition of EphA5 (unknown origin) at <1 uM using biotinylated poly[Glu:Tyr] (4:1) as substrate pretreated for 5 mins followed by substrate addition measured after 10 mins by Alphascreen assay
[15] = target: RAC-alpha serine/threonine-protein kinase (Homo sapiens) (UniProt P31749); experiment: Inhibition of Akt1 (unknown origin) at <1 uM using AKT1 substrate pretreated for 5 mins followed by substrate addition after 20 mins in presence of [gamma33P]ATP by scintillation counter method
[16] = target: Casein kinase I isoform delta (Homo sapiens) (UniProt P48730); experiment: Inhibition of CK1delta (unknown origin) at 1 uM using CK1tide as substrate preincubated for 5 mins followed by substrate addition measured after 20 mins in presence of [gamma33P]ATP by scintillation counter method relative to control
[17] = target: Phosphatidylinositol 4,5-bisphosphate 3-kinase catalytic subunit alpha isoform (Homo sapiens) (UniProt P42336); experiment: Inhibition of PI3Kalpha (unknown origin) at <1 uM
[18] = target: Protein kinase C theta type (Homo sapiens) (UniProt Q04759); experiment: Inhibition of PKCtheta (unknown origin) at 1 uM using MBP as substrate preincubated for 5 mins followed by substrate addition measured after 60 mins in presence of [gamma33P]ATP by scintillation counter method relative to control
[19] = target: Cyclin-C/Cyclin-dependent kinase 19 (Homo sapiens, UniProt Q9BWU1); experiment: Inhibition of kinase tracer-236 binding to GST-tagged CDK19/CyclinC (unknown origin) after 60 mins by TR-FRET assay; format: protein-complex assay
[20] = target: Glycogen synthase kinase-3 beta (Homo sapiens) (UniProt P49841); experiment: Inhibition of GSK3beta (unknown origin) at 1 uM using GSK3 substrate peptide preincubated for 5 mins followed by substrate addition measured after 30 mins in presence of [gamma33P]ATP by scintillation counter method relative to control
Homo sapiens = organism: Homo sapiens; experiment: Inhibition of PKA (unknown origin) at 1 uM using PKA peptide as substrate preincubated for 5 mins followed by substrate addition measured after 10 mins in presence of [gamma33P]ATP by scintillation counter method relative to control
[21] = target: Serine/threonine-protein kinase PLK1 (Homo sapiens) (UniProt P53350); experiment: Inhibition of PLK1 (unknown origin) at 1 uM using alpha-casein as substrate preincubated for 5 mins followed by substrate addition measured after 60 mins in presence of [gamma33P]ATP by scintillation counter method relative to control
[22] = target: T2, Cyclin-dependent kinase 9 (Homo sapiens, UniProt P50750); experiment: Inhibition of CDK9 (unknown origin)
[23] = target: Mitogen-activated protein kinase 3 (Homo sapiens) (UniProt P27361); experiment: Inhibition of ERK1 (unknown origin) at <1 uM using MBP as substrate preincubated for 5 mins followed by substrate addition measured after 60 mins in presence of [gamma33P]ATP by scintillation counter method
[24] = target: T2, Cyclin-dependent kinase 9; experiment: Inhibition of CDK9 (unknown origin) at 1 uM relative to control
[25] = target: Mitogen-activated protein kinase 14 (Homo sapiens) (UniProt Q16539); experiment: Inhibition of p38alpha (unknown origin) at <1 uM using MBP as substrate preincubated for 5 mins followed by substrate addition measured after 60 mins in presence of [gamma32P]ATP by scintillation counter method
[26] = target: Hepatocyte growth factor receptor (Homo sapiens) (UniProt P08581); experiment: Inhibition of cMET (unknown origin) at <1 uM
[27] = target: Tyrosine-protein kinase JAK1 (Homo sapiens) (UniProt P23458); experiment: Inhibition of JAK1 (unknown origin) at <1 uM using biotinylated poly[Glu:Tyr] (4:1) as substrate pretreated for 5 mins followed by substrate addition measured after 10 mins by Alphascreen assay
[28] = target: Serine/threonine-protein kinase Chk1 (Homo sapiens) (UniProt O14757); experiment: Inhibition of CHK1 (unknown origin) at <1 uM using CHKtide as substrate preincubated for 5 mins followed by substrate addition measured after 10 mins in presence of [gamma33P]ATP by scintillation counter method
[29] = target: Insulin receptor (Homo sapiens) (UniProt P06213); experiment: Inhibition of IRK (unknown origin) at <1 uM using biotinylated poly[Glu:Tyr] (4:1) as substrate pretreated for 5 mins followed by substrate addition measured after 60 mins by Alphascreen assay
CDK8/Cyclin C [30] = target: T3, CDK8/Cyclin C (Homo sapiens, UniProt P49336); experiment: Inhibition of kinase tracer-236 binding to GST-tagged CDK8/CyclinC (unknown origin) after 60 mins by TR-FRET assay; format: protein-complex assay
[31] = target: Aurora kinase B (Homo sapiens) (UniProt Q96GD4); experiment: Inhibition of Aurora B (unknown origin) at <1 uM using aurora peptide as substrate preincubated for 5 mins followed by substrate addition measured after 60 mins in presence of [gamma33P]ATP by scintillation counter method
[32] = target: Dual specificity mitogen-activated protein kinase kinase 1 (Homo sapiens) (UniProt Q02750); experiment: Inhibition of MEK1 (unknown origin) at <1 uM using GST-ERK1 as substrate preincubated for 5 mins followed by substrate addition measured after 20 mins in presence of [gamma33P]ATP by scintillation counter method
[33] = target: High affinity nerve growth factor receptor (Homo sapiens) (UniProt P04629); experiment: Inhibition of TrkA (unknown origin) at <1 uM
[34] = Intrinsic clearance in human liver microsomes at 1 umol/l after 15 to 30 mins in presence of NADPH by LC-MS/MS analysis; format: ADME, microsome; settings: read-out: CLH
[35] = target: T1, Cyclin-dependent kinase 8; experiment: Inhibition of CDK8 induced beta-catenin transcriptional activity in human HCT116 cells by luciferase reporter gene assay; format: cell-based
CDK8/Cyclin C [36] = target: T3, CDK8/Cyclin C; experiment: Inhibition of full length recombinant human His-tagged CDK8/Cyclin C expressed in baculovirus expression system by LanthaScreen assay

T1 sequence (P49336 whole entry): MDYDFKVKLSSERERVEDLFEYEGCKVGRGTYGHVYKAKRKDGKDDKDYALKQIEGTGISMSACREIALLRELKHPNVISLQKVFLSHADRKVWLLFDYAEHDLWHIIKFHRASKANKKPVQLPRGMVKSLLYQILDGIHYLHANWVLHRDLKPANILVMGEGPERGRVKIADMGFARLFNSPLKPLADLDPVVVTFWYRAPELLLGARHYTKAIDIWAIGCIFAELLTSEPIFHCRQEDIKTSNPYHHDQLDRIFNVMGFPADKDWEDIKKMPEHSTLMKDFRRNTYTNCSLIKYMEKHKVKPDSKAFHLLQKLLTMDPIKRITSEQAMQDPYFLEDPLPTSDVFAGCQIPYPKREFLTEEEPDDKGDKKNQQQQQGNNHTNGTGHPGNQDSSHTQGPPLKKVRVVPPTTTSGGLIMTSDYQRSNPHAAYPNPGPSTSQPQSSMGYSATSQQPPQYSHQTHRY
T3 sequence (P49336 whole entry): as above
T3 sequence (P24863 whole entry, further chain): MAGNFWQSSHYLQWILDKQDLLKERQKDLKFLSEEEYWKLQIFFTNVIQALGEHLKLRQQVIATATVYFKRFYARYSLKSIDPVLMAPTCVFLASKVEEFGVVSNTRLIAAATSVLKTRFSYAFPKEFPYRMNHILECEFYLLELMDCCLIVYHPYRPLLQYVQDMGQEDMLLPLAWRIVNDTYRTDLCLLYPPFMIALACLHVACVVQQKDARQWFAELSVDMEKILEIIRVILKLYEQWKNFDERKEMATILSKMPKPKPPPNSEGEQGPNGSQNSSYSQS
T2 sequence (P50750 whole entry): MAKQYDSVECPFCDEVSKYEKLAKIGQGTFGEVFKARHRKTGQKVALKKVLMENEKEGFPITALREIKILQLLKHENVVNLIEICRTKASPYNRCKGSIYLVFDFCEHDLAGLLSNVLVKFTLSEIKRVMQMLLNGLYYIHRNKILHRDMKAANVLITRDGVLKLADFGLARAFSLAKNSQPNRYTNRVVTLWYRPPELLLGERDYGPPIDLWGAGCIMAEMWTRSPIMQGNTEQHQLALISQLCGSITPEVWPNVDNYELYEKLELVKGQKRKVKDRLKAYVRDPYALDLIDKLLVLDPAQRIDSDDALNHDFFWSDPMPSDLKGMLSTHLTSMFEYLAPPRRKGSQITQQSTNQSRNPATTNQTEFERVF
Chain of Hepatocyte growth factor receptor (Homo sapiens) (P08581 whole entry): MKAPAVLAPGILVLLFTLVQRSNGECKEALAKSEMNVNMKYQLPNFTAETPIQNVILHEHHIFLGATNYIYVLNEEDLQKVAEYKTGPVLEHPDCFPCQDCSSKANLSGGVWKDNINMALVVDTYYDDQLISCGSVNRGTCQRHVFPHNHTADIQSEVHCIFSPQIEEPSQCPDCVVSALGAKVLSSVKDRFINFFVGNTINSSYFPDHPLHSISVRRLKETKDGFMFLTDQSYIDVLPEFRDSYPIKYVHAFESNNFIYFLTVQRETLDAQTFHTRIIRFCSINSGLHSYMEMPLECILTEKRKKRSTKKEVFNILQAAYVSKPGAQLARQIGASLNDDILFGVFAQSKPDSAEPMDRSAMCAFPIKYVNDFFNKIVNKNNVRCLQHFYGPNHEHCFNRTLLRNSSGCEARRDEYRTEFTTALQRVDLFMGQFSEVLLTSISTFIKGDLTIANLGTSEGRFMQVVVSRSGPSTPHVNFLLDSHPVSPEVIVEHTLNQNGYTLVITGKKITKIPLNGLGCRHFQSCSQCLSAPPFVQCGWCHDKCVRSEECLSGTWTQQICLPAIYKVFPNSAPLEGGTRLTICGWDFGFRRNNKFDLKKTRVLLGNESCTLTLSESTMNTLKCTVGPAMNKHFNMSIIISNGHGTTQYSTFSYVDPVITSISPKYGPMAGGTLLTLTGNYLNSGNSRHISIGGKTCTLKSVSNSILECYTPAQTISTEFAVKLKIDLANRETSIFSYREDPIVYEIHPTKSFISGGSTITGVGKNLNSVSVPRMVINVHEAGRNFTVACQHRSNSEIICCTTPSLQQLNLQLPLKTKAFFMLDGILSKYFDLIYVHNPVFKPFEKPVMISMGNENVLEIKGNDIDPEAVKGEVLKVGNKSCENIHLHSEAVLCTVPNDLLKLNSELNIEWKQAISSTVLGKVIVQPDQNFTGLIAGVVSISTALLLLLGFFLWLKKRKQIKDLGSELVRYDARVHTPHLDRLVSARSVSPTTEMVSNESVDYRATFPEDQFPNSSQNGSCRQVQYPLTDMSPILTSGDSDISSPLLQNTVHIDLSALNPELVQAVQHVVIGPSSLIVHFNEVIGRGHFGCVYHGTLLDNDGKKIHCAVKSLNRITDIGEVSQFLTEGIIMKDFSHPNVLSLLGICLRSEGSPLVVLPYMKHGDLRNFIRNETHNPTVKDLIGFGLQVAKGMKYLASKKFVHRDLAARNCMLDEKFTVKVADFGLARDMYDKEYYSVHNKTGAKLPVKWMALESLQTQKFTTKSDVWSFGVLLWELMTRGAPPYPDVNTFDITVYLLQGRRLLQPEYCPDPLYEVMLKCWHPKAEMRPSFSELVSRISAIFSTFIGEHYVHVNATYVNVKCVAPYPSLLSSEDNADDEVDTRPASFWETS
Chain of Phosphatidylinositol 4,5-bisphosphate 3-kinase catalytic subunit alpha isoform (Homo sapiens) (P42336 whole entry, canonical isoform): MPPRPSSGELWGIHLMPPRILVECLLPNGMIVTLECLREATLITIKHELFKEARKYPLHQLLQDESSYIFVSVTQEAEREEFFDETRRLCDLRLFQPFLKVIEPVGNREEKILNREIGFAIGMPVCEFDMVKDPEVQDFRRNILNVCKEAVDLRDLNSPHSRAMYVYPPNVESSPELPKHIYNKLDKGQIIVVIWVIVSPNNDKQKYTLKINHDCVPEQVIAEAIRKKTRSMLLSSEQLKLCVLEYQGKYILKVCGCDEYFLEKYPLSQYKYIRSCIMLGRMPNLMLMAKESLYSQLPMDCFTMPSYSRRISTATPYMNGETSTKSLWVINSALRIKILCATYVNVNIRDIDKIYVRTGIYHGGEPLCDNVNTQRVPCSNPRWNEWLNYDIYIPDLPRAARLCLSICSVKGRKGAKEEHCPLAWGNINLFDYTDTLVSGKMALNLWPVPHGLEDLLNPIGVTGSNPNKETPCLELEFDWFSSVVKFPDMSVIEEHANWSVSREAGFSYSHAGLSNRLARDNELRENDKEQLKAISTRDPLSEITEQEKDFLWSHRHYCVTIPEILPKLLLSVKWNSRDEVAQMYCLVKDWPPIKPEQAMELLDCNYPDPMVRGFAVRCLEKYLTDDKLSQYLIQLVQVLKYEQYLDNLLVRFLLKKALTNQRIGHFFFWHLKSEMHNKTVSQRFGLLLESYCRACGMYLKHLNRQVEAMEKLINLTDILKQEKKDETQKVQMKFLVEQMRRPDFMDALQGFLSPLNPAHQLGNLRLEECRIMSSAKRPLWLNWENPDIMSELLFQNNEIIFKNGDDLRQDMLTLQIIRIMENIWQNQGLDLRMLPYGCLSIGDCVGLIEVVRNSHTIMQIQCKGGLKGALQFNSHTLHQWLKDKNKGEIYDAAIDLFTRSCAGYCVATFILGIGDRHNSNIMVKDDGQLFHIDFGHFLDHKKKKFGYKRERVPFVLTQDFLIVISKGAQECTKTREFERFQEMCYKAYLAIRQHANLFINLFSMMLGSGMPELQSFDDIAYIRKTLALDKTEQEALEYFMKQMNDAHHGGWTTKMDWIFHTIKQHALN
Chain of Aurora kinase B (Homo sapiens) (Q96GD4 whole entry): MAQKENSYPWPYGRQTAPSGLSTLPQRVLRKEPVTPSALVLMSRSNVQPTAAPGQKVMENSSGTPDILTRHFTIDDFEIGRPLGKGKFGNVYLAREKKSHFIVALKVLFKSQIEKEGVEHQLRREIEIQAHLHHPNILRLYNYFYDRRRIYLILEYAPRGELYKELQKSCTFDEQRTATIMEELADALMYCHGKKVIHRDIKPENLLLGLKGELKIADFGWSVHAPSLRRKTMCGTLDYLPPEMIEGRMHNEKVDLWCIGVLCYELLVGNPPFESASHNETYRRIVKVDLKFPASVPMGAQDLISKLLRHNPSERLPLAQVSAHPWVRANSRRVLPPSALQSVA
Chain of Cyclin-C/Cyclin-dependent kinase 19 (Q9BWU1 whole entry): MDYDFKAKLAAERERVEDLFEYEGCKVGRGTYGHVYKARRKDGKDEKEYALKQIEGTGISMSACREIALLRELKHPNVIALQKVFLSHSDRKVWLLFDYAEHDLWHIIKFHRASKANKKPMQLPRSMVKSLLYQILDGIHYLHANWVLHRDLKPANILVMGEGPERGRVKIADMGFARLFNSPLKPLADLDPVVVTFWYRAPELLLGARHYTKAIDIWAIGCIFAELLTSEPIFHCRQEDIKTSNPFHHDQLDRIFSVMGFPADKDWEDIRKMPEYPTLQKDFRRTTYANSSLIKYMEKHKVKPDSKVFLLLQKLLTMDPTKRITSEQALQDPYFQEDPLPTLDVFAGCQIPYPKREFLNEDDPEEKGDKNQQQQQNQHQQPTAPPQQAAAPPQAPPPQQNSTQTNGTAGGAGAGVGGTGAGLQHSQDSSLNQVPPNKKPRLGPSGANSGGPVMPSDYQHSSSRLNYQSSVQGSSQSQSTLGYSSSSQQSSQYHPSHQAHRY
Chain of Cyclin-C/Cyclin-dependent kinase 19 (P24863 whole entry, further chain): as the sequence (P24863 whole entry, further chain) above
Chain of MAP kinase-activated protein kinase 2 (Homo sapiens) (P49137 whole entry, looked up): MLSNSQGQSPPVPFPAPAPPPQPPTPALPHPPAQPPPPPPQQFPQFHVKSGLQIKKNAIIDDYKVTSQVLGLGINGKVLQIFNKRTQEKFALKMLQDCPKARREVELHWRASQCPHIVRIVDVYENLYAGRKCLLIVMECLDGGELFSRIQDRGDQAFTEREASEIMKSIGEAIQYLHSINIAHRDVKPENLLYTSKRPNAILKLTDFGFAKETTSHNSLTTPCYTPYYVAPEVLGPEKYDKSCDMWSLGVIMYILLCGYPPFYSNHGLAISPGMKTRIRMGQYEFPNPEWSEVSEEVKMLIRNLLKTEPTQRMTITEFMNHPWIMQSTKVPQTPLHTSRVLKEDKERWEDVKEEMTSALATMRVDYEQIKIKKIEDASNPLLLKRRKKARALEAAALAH

## CN(C)[C@H]1C[C@@]23CC[C@@]4(O2)C(=CC[C@]2(C)[C@@H](c5ccc6ccncc6c5)CC[C@H]24)C=C3[C@@H](O)[C@@H]1O
SET-2
  Activity: 71%

## Brc1c(Br)c2c3c(nc(N4CCNCC4)n3CCC2)c1Br
[1]
  inhibition: 96%

## NC(=O)C[C@H]1CCc2sc3ncnc(O[C@H]4CC[C@H](N5CCOCC5)CC4)c3c21
[2]
  IC50: 22 nM

## CSc1sc(C(N)=O)c2c1-c1sncc1CC2
[3]
  inhibition: inactive
[4]
  inhibition: 95%
[5]
  inhibition: 91%
[6]
  inhibition: inactive
[7]
  inhibition: inactive
[8]
  inhibition: 99%
[9]
  inhibition: 60%
[10]
  inhibition: inactive
[11]
  EC50: 8.9 nM
[12]
  inhibition: 97%
[13]
  inhibition: 81%
[14]
  inhibition: inactive
[15]
  inhibition: inactive
[16]
  inhibition: 94%
[17]
  inhibition: inactive
[18]
  inhibition: 77%
[19]
  IC50: 1.3 to 1.7 nM
[20]
  inhibition: 64%
Homo sapiens
  inhibition: 62%
[21]
  inhibition: 62%
[22]
  IC50: 4 nM
[23]
  inhibition: inactive
[24]
  inhibition: 105%
[25]
  inhibition: inactive
[26]
  inhibition: inactive
[27]
  inhibition: inactive
[28]
  inhibition: inactive
[29]
  inhibition: inactive
CDK8/Cyclin C [30]
  IC50: 0.65 nM
[31]
  inhibition: inactive
[32]
  inhibition: inactive
[33]
  inhibition: inactive
[34]
  microsomal CLint at 1 µM: 137 µL/min/mg

## c1cc2cc(c1)-c1cnc3ccc(nn13)NCCCCCO2
[35]
  EC50: 337 nM
CDK8/Cyclin C [36]
  IC50: 31 nM
